Legend:
[1] = Phase 2 trial, development terminated June 2013; cited from earlier work
BACE1 = target: T1, BACE1 (Homo sapiens, UniProt P56817); test: BACE1 biochemical FRET based assay; details: Method 1: recombinant BACE1 1 μg/ml, 120 min at room temperature, pH 5.0
T1 construct: recombinant BACE1 protein in a final concentration of 1 μg/ml
Procedure, shortened: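 Recombinant BACE1 (1 μg/ml) incubated 120 min at room temperature with 10 μm Mca/Dnp-quenched 13-mer APP Swedish-mutant peptide in 40 mM citrate pH 5.0, 0.04% PEG, 4% DMSO. Fluorescence (ex 320/em 405 nm) change between T0 and T120 gives activity; IC50 from least-squares curve fit of % control versus concentration.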

[2] = Limited safety evaluation in the beagle dog (observations, serum biochemistry); type: in vivo; details: one female dog dosed at 0.08 mg/kg, single dose, 8 h post dosing
Method: (§1) Test compounds were tested to evaluate the effect on the beta-amyloid profile in cerebrospinal fluid (CSF) of dogs after a single dose, in combination with pharmacokinetic (PK) follow up and limited safety evaluation. For each of compound 4b, 3c, 7d, or 14, four beagle dogs (2 males, 2 females) were dosed with vehicle (1 ml/kg of an aqueous solution of 20% cyclodextrin) and 12, 8, 4 and 4 beagle dogs (2 males and 2 females per dosage group), were dosed with test compounds as follows:
CSF was taken in conscious animals directly from the lateral ventricle via a cannula which was screwed in the skull and covered with subcutaneous tissue and skin, before and at 4, 8, 25 and 49 hours after dosing. Eight hours after dosing the animals got access to their regular meal for 30 minutes. […] The CSF samples were used for measurement of Abeta 1-42.

[3] = system: Abeta 1-42 produced and secreted into the medium of human neuroblastoma SKNBE2 cells; test: Cellular αLisa assay in SKNBE2 cells; type: cell-based; details: human neuroblastoma SKNBE2 cells expressing hAPP695, 18 hours incubation
Procedure, shortened: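 Human neuroblastoma SKNBE2 cells expressing wild-type hAPP695 were exposed to compound for 18 hours. Secreted Abeta 1-42 in medium was quantified by sandwich αLisa (AbN/25 and cAb42/26 beads; 1 h, excitation 650 nm, emission 615 nm). IC50 came from a least-squares curve fit of % Controlmin against concentration.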

BACE2 = target: T2, BACE2 (Homo sapiens, UniProt Q9Y5Z0); test: BACE2 biochemical FRET based assay; details: recombinant BACE2, 450 minutes at room temperature, pH 5.0
T2 construct: recombinant BACE2 protein in a final concentration of 0.4 μg/ml
T2 sequence (Q9Y5Z0 63-518): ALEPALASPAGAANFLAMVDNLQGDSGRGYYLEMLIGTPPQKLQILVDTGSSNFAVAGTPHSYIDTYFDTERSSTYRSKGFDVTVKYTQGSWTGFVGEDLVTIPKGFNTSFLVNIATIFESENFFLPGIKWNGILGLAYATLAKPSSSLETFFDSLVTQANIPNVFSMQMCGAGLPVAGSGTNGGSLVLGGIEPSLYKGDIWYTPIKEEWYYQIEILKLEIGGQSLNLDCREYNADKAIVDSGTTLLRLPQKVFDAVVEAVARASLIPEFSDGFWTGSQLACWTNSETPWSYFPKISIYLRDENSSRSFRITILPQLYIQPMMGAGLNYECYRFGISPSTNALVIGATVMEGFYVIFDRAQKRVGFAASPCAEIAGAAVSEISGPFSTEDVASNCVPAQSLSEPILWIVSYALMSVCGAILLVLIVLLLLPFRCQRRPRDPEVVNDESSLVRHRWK
Procedure, shortened: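 Recombinant BACE2 (0.4 μg/ml) incubated 450 min at room temperature with 10 μM Mca/Dnp Swedish-APP FRET substrate in 50 mM citrate pH 5.0, 0.05% PEG, no DMSO. Fluorescence (ex 320/em 405 nm) difference T450 minus T0; IC50 from least-squares fit of % control versus concentration.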

[4] = system: Abeta 1-42 in cerebrospinal fluid (CSF); test: Pharmacology in the beagle dog: beta-amyloid profile in CSF after a single dose; type: in vivo; details: for % Mean decrease in Abeta 1-42 at 8 h post dosing compared to own baseline / % Mean decrease in Abeta 1-42 at 25 h post dosing compared to own baseline / % Mean decrease in Abeta 1-42 at 49 h post dosing compared to own baseline: beagle dog CSF
Method: Pharmacology in the Beagle Dog
as §1
CSF was taken in conscious animals directly from the lateral ventricle via a cannula which was screwed in the skull and covered with subcutaneous tissue and skin, before and at 4, 8, 25 and 49 hours after dosing. Eight hours after dosing the animals got access to their regular meal for 30 minutes. Blood was taken for PK follow up (0.5, 1, 2, 4, 8, 25 and 49 hours) and serum samples for biochemistry were taken before and at 8 and 25 h after dosing. The CSF samples were used for measurement of Abeta 1-42.

T1 sequence (P56817 46-501): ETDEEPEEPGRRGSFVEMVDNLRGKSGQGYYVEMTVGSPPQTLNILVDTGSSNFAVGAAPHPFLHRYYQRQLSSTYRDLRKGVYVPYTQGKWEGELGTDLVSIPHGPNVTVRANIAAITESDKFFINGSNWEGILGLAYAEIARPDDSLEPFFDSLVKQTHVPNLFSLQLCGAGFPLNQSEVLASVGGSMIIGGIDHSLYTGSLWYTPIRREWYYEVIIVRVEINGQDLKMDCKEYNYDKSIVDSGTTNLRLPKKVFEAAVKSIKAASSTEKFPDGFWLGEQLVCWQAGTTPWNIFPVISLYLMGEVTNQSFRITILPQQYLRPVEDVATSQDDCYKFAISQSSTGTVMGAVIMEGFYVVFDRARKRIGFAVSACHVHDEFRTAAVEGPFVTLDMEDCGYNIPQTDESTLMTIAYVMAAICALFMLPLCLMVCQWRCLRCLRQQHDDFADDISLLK

| Biochemical FRET based assay pIC50 (BACE1) | Cellular αLisa assay in SKNBE2 cells Abeta 42 pIC50 [3] | Biochemical FRET based assay pIC50 (BACE2) | EC50 Aβ42 ([4]; beagle dog, CSF Abeta 1-42 after single dose) [µg/mL] | Structure (SMILES) | liver abnormalities (patients affected) [1] | Observations [2] | % Mean decrease in Abeta 1-42 at 8 h post dosing compared to own baseline ([4]; single dose 0.08 mg/kg) [%] | % Mean decrease in Abeta 1-42 at 25 h post dosing compared to own baseline ([4]; single dose 0.08 mg/kg) [%] | % Mean decrease in Abeta 1-42 at 49 h post dosing compared to own baseline ([4]; single dose 0.08 mg/kg) | % Mean decrease in Abeta 1-42 at 8 h post dosing compared to own baseline ([4]; single dose 0.31 mg/kg) [%] | % Mean decrease in Abeta 1-42 at 25 h post dosing compared to own baseline ([4]; single dose 0.31 mg/kg) [%] | % Mean decrease in Abeta 1-42 at 49 h post dosing compared to own baseline ([4]; single dose 0.31 mg/kg) [%] |
| --- | --- | --- | --- | --- | --- | --- | --- | --- | --- | --- | --- | --- |
|  |  |  |  | NC1=N[C@@]2(c3cc(NC(=O)c4ccc(F)cn4)ccc3F)COC[C@H]2CS1 [LY2886721] | four out of 45 |  |  |  |  |  |  |  |
| 9.06 | 8.52 | 7.97 | 0.019 | C[C@@]1(C#N)C[C@@H]2[C@@H](C(F)(F)F)OC[C@]2(c2cc(NC(=O)c3ccc(C#N)cn3)ccc2F)N=C1N [3c] |  | moderate diarrhea | 29 | 27 | NR (NR means % decrease < 20) | 64 | 62 | 50 |

Source: US20200062773A1, “4,4a,5,7-TETRAHYDRO-3H-FURO[3,4-b]PYRIDINYL COMPOUNDS” (Janssen Pharmaceutlca NV, priority 2016, published 2020)
